The values below come from patent US20170305861A1, “HETEROARYL COMPOUNDS COMPRISING NITROGEN AND USE THEREOF” (ImmunoMet Therapeutics, Inc, priority 2016, published 2017).

Assay [1] concerns A549 cell lines (lung cancer cell lines). Briefly: Oxygen Consumption Rate (OCR) of cells, corrected for cell viability (Cyquant). Type of assay: cell-based. The settings on record: Homo sapiens, read-out: OCR IC50. How it is done:
The compounds synthesized by the methods disclosed in the Examples of the present invention have been measured on oxygen consumption rate and extracellular oxidation by the methods disclosed in the Test Examples below.
3×10^3 cells from A549 cell lines (purchased from ATCC-American Type Culture Collection), which are lung cancer cell lines, were placed on XF96 cell culture plates using RPMI1640 medium, and cultured at 37° C. in a 5% CO2 condition for 16 hours or more for attachment.
After 16 hours, the cells were treated with the drug at six different concentrations between 0 μM and 20 μM. After 24 hours, the existing medium was removed, and XF assay medium (15 mM D-Glucose, 15 mM sodium pyruvate, 4 mM L-Glutamine, pH 7.4) was added. The cells were retreated with the drug, and additionally cultured in Prep station at 37° C. in a non-CO2 condition for 1 hour. During the one-hour culture in the Prep station, a sensor cartridge was placed and calibrated for 20 minutes, and a plate with cells was placed to analyze the OCR. After the analysis was completed, XF96 plate was measured for cell viability using Cyquant assay, which measures the amount of intracellular DNA, in the following method. XF assay medium and the drug were removed, and the cells were placed in a cryogenic refrigerator (−80° C.) for at least 4 hours to be frozen. After the plate was made to be at room temperature, a solution where a lysis buffer and fluorescent GR dye were mixed was placed by 200 μL per well. After 20-minute reaction at room temperature, […] was measured between […] to calculate cell viability. A measured value of a well untreated with the drug was converted to 100% by reflecting cell viability to the OCR value. Concentration of a drug which inhibits the OCR value reflecting cell viability by 50% was calculated.

The subject of assay [2] is SK-MEL-28 cells. Kind of assay: Inhibitory effect of cancer cell proliferation, MTT. Type of assay: cell-based. The settings on record: Homo sapiens. How it is done: The compounds prepared in the above Examples were evaluated for the inhibitory effect of cancer cell proliferation according to the method described in the following Test Example.
SK-MEL-28 cells derived from human melanoma were used, and the concentration (cell growth inhibitory concentration, IC50) at which cell growth was inhibited to 50% was measured using MTT reagent (3-(4,5-dimethylthiazole-2-yl)-2,5-[…] bromide) to confirm the inhibitory effect of cancer cell proliferation of the drugs synthesized in Examples 1 to 84.
First, SK-MEL-28 cells were cultured in 96-well plates at a cell number of about 1,250 in RPMI-1640 medium containing 11.1 mM glucose and 10% calf blood serum or 0.75 mM glucose and 10% calf blood serum, and were cultured for 16 hours. […] After treatment of the compound, MTT was added to the culture medium to confirm living cells and further cultured for 2 hours. The resulting formazane crystal was dissolved using dimethyl sulfoxide, and the absorbance of the solution was measured at 555 nm. After culturing for 72 hours, the number of viable cells in the well plate treated with the compounds synthesized in the Examples relative to the number of cells cultured in the well plate without treatment of the compounds was expressed as cell viability (%) according to each treatment concentration. By using this, a cell viability curve graph was prepared, and the inhibitory effect of cancer cell proliferation was confirmed by calculating the concentration of the compound whose growth was inhibited to 50% (IC50).

Where [3] appears, read: A549 cells, 24 h drug treatment, OCR value reflecting cell viability.
[4] abbreviates: SK-MEL-28, 0.75 mM glucose, 72 hours, MTT, read-out: SK-MEL-28 0.75 mM glucose Cell viability (IC50 μM).
Where [5] appears, read: SK-MEL-28, 11.1 mM glucose, 72 hours, MTT, read-out: SK-MEL-28 11.1 mM glucose Cell viability (IC50 μM).
The mark [6] stands for this setting: SK-MEL-28, 72 h, read-out: SK-MEL-28 0.75 mM glucose Cell viability (IC50 μM).
[7] abbreviates: SK-MEL-28, 72 h, read-out: SK-MEL-28 11.1 mM glucose Cell viability (IC50 μM).

Molecules are shown by their SMILES. Like-named read-outs stand apart in the source and are kept apart here.

Turning to `c1ccc(C[n+]2ccc(N3CCOCC3)cc2)cc1` [Example 50, 1-Benzyl-4-morpholinopyridinium chloride], the IC50 in assay [1] (setting [3]) was determined as 1 µM; in assay [2] (setting [4]), 13.9 µM; in assay [2] (setting [5]), 208 µM.
Take `c1ccc(CC[n+]2ccc(N3CCOCC3)cc2)cc1` [Example 51, 4-Morpholino-1-phenethylpyridinium chloride]: the IC50 came out at 3.1 µM in assay [1] (setting [3]), 29.1 µM in assay [2] (setting [4]) and 201 µM in assay [2] (setting [5]).
Regarding `c1c[n+](CC2CC2)ccc1N1CCOCC1` [Example 52, 4-Morpholino-1-(cyclopropylmethyl)pyridinium chloride], the IC50 in assay [1] (setting [3]) worked out at 0.8 µM; in assay [2] (setting [4]), 40 µM; in assay [2] (setting [5]), 367 µM.
Taken in the same sequence, the figures for `c1c[n+](CCC2CCCCC2)ccc1N1CCOCC1` [Example 53, 1-(2-Cyclohexylethyl)-4-morpholinopyridinium bromide] were 0.5 µM, 8.7 µM and 76.4 µM.
In the case of `c1ccc(C[n+]2ccc(N3CCCC3)cc2)cc1` [Example 54, 1-Benzyl-4-(pyrrolidin-1-yl)pyridinium chloride], the IC50 in assay [1] (setting [3]) is 1.1 µM; in assay [2] (setting [4]), 3.4 µM; in assay [2] (setting [5]), 29.7 µM.
Taken in the same sequence, the figures for `c1ccc(CC[n+]2ccc(N3CCCC3)cc2)cc1` [Example 55, 1-Phenethyl-4-(pyrrolidin-1-yl)pyridinium chloride] were 3.1 µM, 0.1 µM and 45.9 µM.
Taken in the same sequence, the figures for `c1c[n+](CC2CC2)ccc1N1CCCC1` [Example 56, 1-(Cyclopropylmethyl)-4-(pyrrolidin-1-yl)pyridinium chloride] were 0.8 µM, 4.4 µM and 118 µM.
For `c1c[n+](CC2CCCCC2)ccc1N1CCCC1` [Example 57, 1-(Cyclohexylmethyl)-4-(pyrrolidin-1-yl)pyridinium bromide], in that order: 0.5 µM, 1.1 µM and 23 µM.
`c1c[n+](CC2CCC2)ccc1N1CCCC1` [Example 58, 1-(Cyclobutylmethyl)-4-(pyrrolidin-1-yl)pyridinium chloride]: the IC50 in assay [1] (setting [3]) was 2.5 µM; in assay [2] (setting [4]), 3 µM; in assay [2] (setting [5]), 93.9 µM.
For `c1ccc(C[n+]2ccc(N3CCCCC3)cc2)cc1` [Example 59, 1-Benzyl-4-(piperidin-1-yl)pyridinium chloride], in that order: 2.8 µM, 2.8 µM and 33.4 µM.
For `c1ccc(C[n+]2ccc(N3CCCCCC3)cc2)cc1` [Example 60, 4-(Azepan-1-yl)-1-benzylpyridinium chloride], in that order: 3.3 µM, 20 µM and 24.1 µM.
With `CC(C)(C)CNc1cc[n+](Cc2ccccc2)cc1` [Example 61, 1-Benzyl-4-(neopentylamino)pyridinium chloride], the half-maximal inhibitory concentration (IC50) in assay [1] (setting [3]) came out at 15.7 µM; in assay [2] (setting [4]), 1.5 µM.
Regarding `c1c[n+](CC2CC2)cc2c1NCCC2` [Example 63, 6-(Cyclopropylmethyl)-1,2,3,4-tetrahydro-1,6-naphthyridin-6-ium chloride], the results for the IC50 in assay [1] (setting [3]), in assay [2] (setting [4]) and in assay [2] (setting [5]) were 7.1 µM, 20.4 µM and 208 µM, respectively.
Taken in the same sequence, the figures for `c1c[n+](CC2CC2)cc2c1NCCO2` [Example 64, 6-(Cyclopropylmethyl)-2,3-dihydro-1H-pyrido[3,4-b][1,4]oxazin-6-ium chloride] were 10.2 µM, 21 µM and 187 µM.
With `c1ccc(C[n+]2ccc(N3CCC3)cc2)cc1` [Example 66, 4-(Azetidin-1-yl)-1-benzylpyridinium chloride], the half-maximal inhibitory concentration (IC50) in assay [1] (setting [3]) was determined as 5.2 µM; in assay [2] (setting [4]) it was 6.1 µM; in assay [2] (setting [5]), 77 µM.
For the compound `c1csc(C[n+]2ccc(N3CCCC3)cc2)c1` [Example 68, 4-(Pyrrolidin-1-yl)-1-(thiophen-2-ylmethyl)pyridinium chloride], the IC50 is 0.8 µM in assay [1] (setting [3]), 1.7 µM in assay [2] (setting [4]) and 38.5 µM in assay [2] (setting [5]).
As to `c1c[n+](CC2CC2)ccc1N1CCC1` [Example 70, 4-(Azetidin-1-yl)-1-(cyclopropylmethyl)pyridinium chloride], the results for the IC50 in assay [1] (setting [3]), in assay [2] (setting [4]) and in assay [2] (setting [5]) were 3.4 µM, 9.4 µM and 49.5 µM, respectively.
For `c1cc(C[n+]2ccc(N3CCC3)cc2)cs1` [Example 71, 4-(Azetidin-1-yl)-1-(thiophen-3-ylmethyl)pyridinium bromide], in that order: 3.4 µM, 6.8 µM and 76.4 µM.
Turning to `c1c[se]c(C[n+]2ccc(N3CCCC3)cc2)c1` [Example 72, 4-(Pyrrolidin-1-yl)-1-(selenophen-2-ylmethyl)pyridinium chloride], the IC50 turned out to be 1 µM in assay [1] (A549, 24 h); 2.6 µM in assay [2] (setting [6]); 37.2 µM in assay [2] (setting [7]).
For `Nc1cc[n+](Cc2ccc[se]2)nc1` [Example 75, 4-Amino-1-(selenophen-2-ylmethyl)pyridazin-1-ium chloride], the IC50 stood at 18.8 µM in assay [1] (A549, 24 h); 57.7 µM in assay [2] (setting [6]); 239 µM in assay [2] (setting [7]).
Taken in the same sequence, the figures for `Nc1cc[n+](Cc2ccc[se]2)cc1` [Example 76, 4-Amino-1-(selenophen-2-ylmethyl)pyridinium chloride] were 1.5 µM, 14.1 µM and 114 µM.
With `Nc1cc[n+](Cc2cccs2)cc1` [Example 77, 4-Amino-1-(thiophen-2-ylmethyl)pyridinium chloride], the IC50 in assay [1] (setting [3]) worked out at 2.4 µM; in assay [2] (setting [4]), 15.8 µM; in assay [2] (setting [5]), 106 µM.
Taken in the same sequence, the figures for `c1coc(C[n+]2ccc(N3CCCC3)cc2)c1` [Example 78, 1-(Furan-2-ylmethyl)-4-(pyrrolidin-1-yl)pyridinium chloride] were 2.1 µM, 3.55 µM and 104 µM.
`Cc1ccc(C[n+]2ccc(N3CCCC3)cc2)s1` [Example 79, 1-((5-Methylthiophen-2-yl)methyl)-4-(pyrrolidin-1-yl)pyridinium chloride]: the IC50 in assay [1] (setting [3]) was found to be 0.8 µM; in assay [2] (setting [4]), 1.16 µM; in assay [2] (setting [5]), 30.7 µM.
Taken in the same sequence, the figures for `Nc1cc(N2CCC2)cc[n+]1Cc1ccsc1` [Example 81] were 2.1 µM, 4.15 µM and 58.4 µM.

As a reminder, the IC50 is the concentration that inhibits the measured activity by half.
